Results: publication PMC7349657, “Efficient Targeted Degradation via Reversible and Irreversible Covalent PROTACs” (Journal of the American Chemical Society, 2020)

Key:
BTK [1] = molecular target: T1, BTK (Homo sapiens, UniProt Q06187); test: Time course of BTK degradation in Ramos and Mino cells; type: cell-based; set-up: endogenous in cells; host or cells: Mino (ATCC CRL-3000), Ramos (ATCC CRL-1596), K562 (NCI-60); details: 100 nM PROTAC, Ramos cells (RC-3: Mino cells)
Description: We followed the rate of BTK degradation facilitated by this compound series via a time course experiment in Ramos and Mino cells (Supporting Figure 3). The rates of degradation correlated well with the DC50 values observed after 24 h, with NC-1, IR-1, IR-2, and RC-3 degrading BTK within 2–4 h, while RC-2 and RC-1 required 6–24 h to reach maximum degradation.
(§1) Ramos (ATCC, CRL-1596), Mino (ATCC, CRL-3000), or K562 (NCI-60) cell lines were counted and diluted to 10^6 cell/mL, using 1 mL per well in a 24-well plate, and U2OS (ATCC HTB-96) cells overexpressing human BTK WT or C481S mutant were grown using 2 mL in a six-well plate (see Supporting Information). Cells were incubated with 1% DMSO or compound in indicated concentrations for 24 h unless indicated differently, or cells were left untreated. Lysates were prepared as previously described,[29] and samples were measured for total protein quantification by bicinchoninic acid (BCA) assay (#23225 ThermoFisher Scientific) supplemented with 4× loading buffer including 20 mM DTT, heated to 70 °C for 10 min, loaded into 4% SDS-PAGE gel, run for 45 min at 140 mV, then transferred into a nitrocellulose membrane (Biorad) using a Trans-Blot Turbo transfer system (Biorad). The membrane was stained with Ponceau (Sigma) to validate transfer for 10 min in gentle agitation then destained for 1 h with MQ water. The membrane was blocked with Licor blocking buffer (LIC927-70001) for 1 h, washed three times for 5 min with TBS-T, incubated with primary antibody BTK (D3H5) rabbit mAb (CST; 8547 S) overnight (16 h) at 4 °C, washed three times for 5 min with TBS-T, and incubated with primary antibody against β-actin (CST; 3700) for 1 h at 25 °C. Membrane was washed three times for 5 min with TBS-T, incubated with fluorescent secondary antibodies anti-mouse IgG Alexa Fluor 647 (CST: 4410S) and anti-rabbit-IgG IRDye 800(LICOR: 926-32211) for 1 h, then washed three times for 5 min with TBS-T, dried, and immediately imaged and analyzed using Licor Odyssey CLx. Prism (GraphPad) software was used to calculate degradation levels. We used second-order polynomial fits to estimate DC50 and Dmax values.
Supplementary Figure 3: BTK degradation time dependency.
Ramos (PI3I, RC-1, I R-1, R C-2, I R-2, NC-1) or Mino ( RC-3) cells were treated with 100 nM of PROTAC or DMSO for indicated times, subsequently harvested for BTK levels measurement via western blot.
(1 picture or pasted object on this page, not shown here)

wild-type BTK = wild-type BTK (Homo sapiens, UniProt Q06187); test: In vitro kinase activity assay, wild-type BTK (Nanosyn)
BTK [2] = molecular target: T1, BTK; test: BTK degradation in Mino cells, dose-response Western blot; type: cell-based; set-up: endogenous in cells; host or cells: Mino (ATCC CRL-3000), Ramos (ATCC CRL-1596), K562 (NCI-60); details: MINO, 24 h, read-out: Dmax (maximal degradation)
Description: We evaluated the ability of the compounds to induce degradation of BTK in human cell lines. We incubated Mino cells with the compounds and followed BTK levels after 24 h by Western blot (Figure 2, Supporting Figure 2). […] The irreversible acrylamides IR-1 and IR-2 and the cyanoacrylamide RC-3 followed closely with DC50’s under 10 nM and Dmax near 90%. […] We conducted metabolomics studies to estimate if cellular penetration and stability may contribute to the relative potencies (Supporting Table 2). NC-1 and RC-3 reached an effective concentration that was ∼2 times higher than IR-2 and ∼10 times higher than RC-2. Therefore, the lower potency of RC-2 can at least in part be explained by lower permeability or stability.
Figure 2 Efficient BTK degradation in cells. (A) Western blot evaluation of BTK levels in Mino cells in response to various concentrations of RC-2, IR-2, NC-1, and RC-3, after 24 h of incubation. (B) Quantification of BTK levels in (A) by normalization to the β-actin house-keeping gene in Mino cells. DC50 and Dmax were calculated by fitting the data to a second-order polynomial using Prism software. (C) Summary of the DC50 and Dmax values for the PROTACs in Mino cells described in (A) and Supporting Figure 2. TEXT PRINTED IN THE PICTURE: (C) NC-1: DC50 (nM): 2.2; Dmax (%): 97 | (C) IR-1: DC50 (nM): 8.6; Dmax (%): 91 | (C) IR-2: DC50 (nM): 1.9; Dmax (%): 88 | (C) RC-1: DC50 (nM): 10; Dmax (%): 68 | (C) RC-2: DC50 (nM): 35; Dmax (%): 66 | (C) RC-3: DC50 (nM): 6; Dmax (%): 85
as §1

BTK [3] = molecular target: T1, BTK; test: Library screen of BTK abundance by Western blot in K562 or Mino cells; type: cell-based; set-up: endogenous in cells; host or cells: Mino (ATCC CRL-3000), Ramos (ATCC CRL-1596), K562 (NCI-60); details: 1 μM compound, 24 h
Description: We incubated K562 or Mino cells with 1 μM of the compounds for 24 h and measured the abundance of BTK by Western blot (Supporting Figure 1). […] On the basis of compound RC-1 we synthesized additional compounds (Figure 1), RC-2 with a CH2 group replacing the oxygen nearest the β-carbon, their analogous acrylamides IR-1 and IR-2, and the noncovalent analogue NC-1. We also synthesized the cyanoacrylamide RC-3 (Figure 1), replacing the Cα hydrogens with methyl groups. Similar dimethylated cyanoacrylamides were reported to have improved cellular permeability.[34]
Ramos (ATCC, CRL-1596), Mino (ATCC, CRL-3000), or K562 (NCI-60) cell lines were counted and diluted to 10^6 cell/mL, using 1 mL per well in a 24-well plate, and U2OS (ATCC HTB-96) cells overexpressing human BTK WT or C481S mutant were grown using 2 mL in a six-well plate (see Supporting Information). […] Lysates were prepared as previously described,[29] and samples were measured for total protein quantification by bicinchoninic acid (BCA) assay (#23225 ThermoFisher Scientific) supplemented with 4× loading buffer including 20 mM DTT, heated to 70 °C for 10 min, loaded into 4% SDS-PAGE gel, run for 45 min at 140 mV, then transferred into a nitrocellulose membrane (Biorad) using a Trans-Blot Turbo transfer system (Biorad). […]

BTK [4] = molecular target: T1, BTK; test: Mechanism validation: pretreatment with ibrutinib, thalidomide-OH or bortezomib before PROTAC in Mino cells; type: cell-based; set-up: endogenous in cells; host or cells: Mino (ATCC CRL-3000), Ramos (ATCC CRL-1596), K562 (NCI-60)

T1 sequence (Q06187 whole entry): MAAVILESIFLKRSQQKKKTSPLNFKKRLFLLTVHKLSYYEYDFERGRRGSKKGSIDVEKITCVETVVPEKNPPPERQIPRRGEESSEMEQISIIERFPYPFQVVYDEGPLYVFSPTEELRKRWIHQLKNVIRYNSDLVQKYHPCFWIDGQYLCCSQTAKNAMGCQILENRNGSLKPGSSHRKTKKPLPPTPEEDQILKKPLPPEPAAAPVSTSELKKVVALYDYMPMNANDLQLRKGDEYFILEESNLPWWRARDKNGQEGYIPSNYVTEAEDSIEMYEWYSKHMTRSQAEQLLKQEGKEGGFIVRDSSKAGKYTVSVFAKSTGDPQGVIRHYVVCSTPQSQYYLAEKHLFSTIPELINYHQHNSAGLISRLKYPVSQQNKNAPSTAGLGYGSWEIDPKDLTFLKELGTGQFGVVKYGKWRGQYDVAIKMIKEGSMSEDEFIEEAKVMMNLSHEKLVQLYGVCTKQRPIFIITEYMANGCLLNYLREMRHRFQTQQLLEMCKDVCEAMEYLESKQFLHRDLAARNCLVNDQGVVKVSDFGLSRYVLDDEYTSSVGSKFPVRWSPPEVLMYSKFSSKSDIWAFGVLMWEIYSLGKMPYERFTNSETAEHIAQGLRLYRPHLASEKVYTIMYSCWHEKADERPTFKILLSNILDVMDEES
Chain of wild-type BTK (Q06187 whole entry, species assumed): as the sequence (Q06187 whole entry) above

N#CC(=CCOCCOCCOCCOCCOCCOc1cccc2c1C(=O)N(C1CCC(=O)NC1=O)C2=O)C(=O)N1CCCC(n2nc(-c3ccc(Oc4ccccc4)cc3)c3c(N)ncnc32)C1 (stereo not drawn) [RC-1]
time to degrade BTK / reach maximum degradation (BTK [1]): 6 to 24 h | IC50 (wild-type BTK): 12 nM | Dmax (BTK [2]): 68% | BTK degradation (abundance of BTK by Western blot) (BTK [3]): consistent prominent levels of degradation in both cell lines

O=C1CCC(N2C(=O)c3cccc(O)c3C2=O)C(=O)N1 (stereo not drawn) [thalidomide-OH]
effect of pretreatment on PROTAC-mediated BTK degradation (BTK [4]; 2 h pretreatment, then PROTAC 24 h): hindered BTK degradation

CC(C)C[C@H](NC(=O)[C@H](Cc1ccccc1)NC(=O)c1cnccn1)B(O)O [bortezomib]
effect of proteasome inhibitor on PROTAC-mediated BTK degradation (BTK [4]; 1 h bortezomib, then PROTAC 4 h): significantly inhibited degradation
